Measurements as given in patent US7282589B2, “Acid addition salt of optically active piperidine compound and process for preparing the same” (UBE Industries, Ltd., priority 1996, dated 2007).
Like-named read-outs stand apart in the source and are kept apart here.

Experiments:
[1] = Pharmacological effects of the metabolite compared with the (S)-ester
[2] = Experiment 1: crystallization of acid addition salts of (S)-piperidine compound (I); format: physicochemical
Description: (S)-Piperidine compound of the formula (I) was dissolved in an organic solvent, and after adding an acid shown in Table 3 to make a uniform solution, the mixture was allowed to stand. When no precipitate is obtained, after the solvent was removed, a less polar solvent was added to the residue and the mixture was allowed to stand again. Except for the case where the acid addition salt is oily or syrupy, the obtained solid material was collected by filtration and dried under reduced pressure.

[3] = Stability test (40° C. and 75% relative humidity, one month); format: physicochemical; settings: for physicochemical stability (conclusion in words): from the test results of Table 4
Description: After pulverizing the above-mentioned respective compounds, powder passed through a 500 μm sieve was made to be a test sample. Respective samples were divided and placed in glass Petri dishes and preserved at 40° C. and 75% relative humidity. One month later, the samples were taken out, and a weight of contained analogues and a content of (R)-isomer by racemization were measured and compared with those at the beginning of the test.
The sample was dissolved in a mobile phase and the solution was adjusted so as to contain about 0.1% of the sample per ml. With regard to 25 μl of the sample solution, percentages of the respective peak area were measured by a liquid chromatography using an automatic integration method.
About 5 mg of the sample was dissolved in the mobile phase and the solution was adjusted so as to contain about 0.1% of the sample per ml. With regard to 1.5 μl of the sample solution, percentages of the respective peak area were measured by a liquid chromatography using an automatic integration method, and an amount of the (R)-isomer (%) was calculated by the following equation.
[formula] • Q^S: percentage of peak area of (S)-isomer • Q^R: percentage of peak area of (R)-isomer Operation Conditions

histamine-induced death = test: Protective effects on histamine-induced death; format: in vivo, Hartley male guinea pigs; settings: for Survival ratio (%): p.o., 2 hours before 1.25 mg/kg histamine hydrochloride i.v.; for ED50: Cavia porcellus, po, obtained from the dose-response curve of Table 1
Description: By using Hartley male guinea pigs with a body weight of 250 to 550 g, protective effects on histamine-induced death were tested according to the method of Lands et al. (Journal of Pharmacological Experimental Therapy, vol. 95, p. 45, 1949 (A. M. Lands, J. O. Hoppe, O. H. Siegmund, and F. F. Luduena, J. Pharmacol. Exp. Ther., 95, 45 (1949))). Test animals were fasted overnight (about 14 hours), and then 5 ml/kg of a test substance was orally administrated. Two hours after administration of the test substance, 1.25 mg/kg of histamine hydrochloride was intravenously administrated to induce histamine shock. After induction, symptom of the test animals was observed and the histamine-shock appearing time was measured, and termination of respiration or restoration was also observed.

[4] = tested on: 7 days homologous PCA reaction; test: Inhibitory effect on 7 days homologous PCA reaction; format: in vivo, Hartley male guinea pigs; settings: for Inhibitory ratio (%): p.o., 2 hours before antigen
Description: By using Hartley male guinea pigs with a body weight of 250 to 550 g, inhibitory effect on PCA reaction was tested according to the method of Levine et al. (Journal of Immunology, vol. 106, p. 29, 1971 (B. B. Levine, H. Chang, Jr., and N. M. Vaz, J. Immunol. 106, 29 (1971))). 0.05 ml of guinea pig anti-BPO.BGG-IgE serum diluted 32-fold with a physiological saline was hypodermically administrated to the guinea pig through two points of right and left sandwiching the median line of the back which had been shaved one day before.
After 7 days, 1 ml of a 1% Evans Blue physiological saline solution containing 500 μg of benzylpenicilloyl bovine serum albumin (BPO.BSA) was intravenously administrated to induce a PCA reaction. Thirty minutes later, exsanguination was carried out, and the skin was peeled off and the amount of the leaked dye was measured according to the method of Katayama et al. (Microbiological Immunology, vol. 22, p. 89, 1978 (S. Katayama, H. Shinoya and S. Ohtake, Microbiol. Immunol., 22, 89 (1978))). The test animals were fasted overnight (about 16 hours) and the test substances were orally administrated 2 hours before the administration of the antigen.

[5] = 1 month later, 40° C. and 75% relative humidity

In the case of `O=C(O)CCCN1CCC(O[C@@H](c2ccc(Cl)cc2)c2ccccn2)CC1` [Example 1, (S)-4-[4-[(4-chlorophenyl)(2-pyridyl)-methoxy]piperidino]butanoic acid], the “pharmacological effects compared with the (S)-ester” value [1] was “substantially shows the same pharmacological effects as the (S)-ester”.
With `C[C@H](O)C(=O)O` [L-Lactic acid] the “Characteristics of acid addition salt” value ([2]; acid molar ratio 1) was “Oily product”.
In the case of `O=C(O)CCCN1CCC(O[C@@H](c2ccc(Cl)cc2)c2ccccn2)CC1.O=S(=O)(O)c1ccccc1` [Benzenesulfonic acid salt, (S)-4-[4-[(4-chlorophenyl)(2-pyridyl)-methoxy]piperidino]butanoic acid monobenzenesulfonic acid salt], the “Amount of moisture absorption” value [3, 5] was 0.18%, the “Content of (R)-isomer” value [3, 5] was 0.39% and the “Content of analogue substance” value [3, 5] was 0.16%. The “Content of (R)-isomer” value ([3]; Beginning) was 0.37%, the “Content of analogue substance” value ([3]; Beginning) was 0.15% and the “physicochemical stability (conclusion in words)” value (shortened to “physicochemical stability”) [3] was “excellent physicochemical stabilities”. The “Characteristics of acid addition salt” value [2] was “non-hygroscopic crystals”.
With `CCOC(=O)CCCN1CCC(O[C@H](c2ccc(Cl)cc2)c2ccccn2)CC1.O=C(O)/C=C/C(=O)O` [(R)-ester, ethyl (R)-4-[4-[(4-chlorophenyl) (2-pyridyl)methoxy]piperidino]butanoate fumaric acid salt] the “Survival ratio (%)” value (histamine-induced death; 0.3 mg/kg) was 0%, the “Survival ratio (%)” value (histamine-induced death; 0.6 mg/kg) was 0% and the “Survival ratio (%)” value (histamine-induced death; 1.0 mg/kg) was 50.0%. The “Survival ratio (%)” value (histamine-induced death; 3.0 mg/kg) was 62.5%, the “Survival ratio (%)” value (histamine-induced death; 10.0 mg/kg) was 100% and the ED50 (histamine-induced death) was 1 mg/kg. The “Inhibitory ratio (%)” value ([4]; 0.3 mg/kg) was −3.1%, the “Inhibitory ratio (%)” value ([4]; 1.0 mg/kg) was 13.6% and the “Inhibitory ratio (%)” value ([4]; 3.0 mg/kg) was 45.8%. The “Inhibitory ratio (%)” value ([4]; 10.0 mg/kg) was 59.5%.
With `CCOC(=O)CCCN1CCC(O[C@@H](c2ccc(Cl)cc2)c2ccccn2)CC1.O=C(O)/C=C/C(=O)O` [(S)-ester, ethyl (S)-4-[4-[(4-chlorophenyl)(2-pyridyl)methoxy]piperidino]butanoate fumaric acid salt] the “Survival ratio (%)” value (histamine-induced death; 0.01 mg/kg) was 0%, the “Survival ratio (%)” value (histamine-induced death; 0.02 mg/kg) was 42.9% and the “Survival ratio (%)” value (histamine-induced death; 0.03 mg/kg) was 62.5%. For the same compound, the “Survival ratio (%)” value (histamine-induced death; 0.06 mg/kg) was 100%, the “Survival ratio (%)” value (histamine-induced death; 0.1 mg/kg) was 100% and the ED50 (histamine-induced death) was 0.023 mg/kg. The “potency relative to the (R)-ester” value (histamine-induced death; ratio of ED50 values) was “about 43 fold”, the “Inhibitory ratio (%)” value ([4]; 0.01 mg/kg) was 37.3% and the “Inhibitory ratio (%)” value ([4]; 0.02 mg/kg) was 46.3%. The “Inhibitory ratio (%)” value ([4]; 0.03 mg/kg) was 56.9%, the “Inhibitory ratio (%)” value ([4]; 0.06 mg/kg) was 63.4% and the “Inhibitory ratio (%)” value ([4]; 0.1 mg/kg) was 58.8%. For the same compound, the “potency relative to the (R)-ester” value ([4]; compared at the dose which inhibits 50% of the maximum value (i.e., 35%)) was at least 100 fold, the “Amount of moisture absorption” value [3, 5] was 0.45% and the “Content of (R)-isomer” value [3, 5] was 1.15%. For the same compound, the “Content of analogue substance” value [3, 5] was 2.65%, the “Content of (R)-isomer” value ([3]; Beginning) was 0.87% and the “Content of analogue substance” value ([3]; Beginning) was 1.72%. The “hygroscopicity (in words)” value ([3]; as shown in the stability test results (Table 4)) was “hygroscopic” and the “physicochemical stability” value [3] was “physicochemically unstable”.
For `O=C(O)CCCN1CCC(O[C@@H](c2ccc(Cl)cc2)c2ccccn2)CC1.O=C(O)c1ccccc1` [Benzoic acid salt, (S)-4-[4-[(4-chlorophenyl)(2-pyridyl)-methoxy]piperidino]butanoic acid monobenzoic acid salt], the “Amount of moisture absorption” value [3, 5] was 0.05%, the “Content of (R)-isomer” value [3, 5] was 0.40% and the “Content of analogue substance” value [3, 5] was 1.20%. The “Content of (R)-isomer” value ([3]; Beginning) was 0.37%, the “Content of analogue substance” value ([3]; Beginning) was 1.20% and the “physicochemical stability” value [3] was “excellent physicochemical stabilities”. For the same compound, the “Characteristics of acid addition salt” value [2] was “non-hygroscopic crystals”.
